Laboratory results taken from patent US12552806B2, “Androgen receptor regulation by small molecule enantiomers” (University of Southern California, priority 2020, dated 2026).
Substitutions are numbered along the chain they refer to. Entries after “also recorded” stand apart in the source; their conditions may differ. Read-outs that look alike come from different tables or passages of the source.

Legend:
[1] = tested on: AR-regulated genes in VCaP cells; test: RT-qPCR array of AR target genes in VCaP cells; assay type: cell-based; conditions: 82 AR target genes, vs NTC and DHT
Protocol: To test for corresponding transcriptional activation, we performed assays in cells expressing ARE-luciferase. […] Next, we examined gene expression in VCaP cells, a hormone-responsive but independent model of CRPC highly expressing AR.
RT-qPCR Array. RNA was isolated using the Illustra RNAspin Mini Kit (GE Healthcare). RNA was transcribed to cDNA using RT2 First Strand Kit (Qiagen). RT-qPCR was performed using Biorad CFX Connect on a RT2 Profiler PCR Array Human Androgen Receptor Signaling Targets (Qiagen).

AR T878A = target: T1, AR T878A (Homo sapiens, UniProt P10275, T878A); test: cell-based; assay type: cell-based
T1 construct: LNCaP cells expressing AR T878A; endogenous in cells; host or cells: LNCaP-luc (LNCaP stably carrying the Cignal Lenti AR Reporter)
T1 sequence (P10275 1-920 T878A): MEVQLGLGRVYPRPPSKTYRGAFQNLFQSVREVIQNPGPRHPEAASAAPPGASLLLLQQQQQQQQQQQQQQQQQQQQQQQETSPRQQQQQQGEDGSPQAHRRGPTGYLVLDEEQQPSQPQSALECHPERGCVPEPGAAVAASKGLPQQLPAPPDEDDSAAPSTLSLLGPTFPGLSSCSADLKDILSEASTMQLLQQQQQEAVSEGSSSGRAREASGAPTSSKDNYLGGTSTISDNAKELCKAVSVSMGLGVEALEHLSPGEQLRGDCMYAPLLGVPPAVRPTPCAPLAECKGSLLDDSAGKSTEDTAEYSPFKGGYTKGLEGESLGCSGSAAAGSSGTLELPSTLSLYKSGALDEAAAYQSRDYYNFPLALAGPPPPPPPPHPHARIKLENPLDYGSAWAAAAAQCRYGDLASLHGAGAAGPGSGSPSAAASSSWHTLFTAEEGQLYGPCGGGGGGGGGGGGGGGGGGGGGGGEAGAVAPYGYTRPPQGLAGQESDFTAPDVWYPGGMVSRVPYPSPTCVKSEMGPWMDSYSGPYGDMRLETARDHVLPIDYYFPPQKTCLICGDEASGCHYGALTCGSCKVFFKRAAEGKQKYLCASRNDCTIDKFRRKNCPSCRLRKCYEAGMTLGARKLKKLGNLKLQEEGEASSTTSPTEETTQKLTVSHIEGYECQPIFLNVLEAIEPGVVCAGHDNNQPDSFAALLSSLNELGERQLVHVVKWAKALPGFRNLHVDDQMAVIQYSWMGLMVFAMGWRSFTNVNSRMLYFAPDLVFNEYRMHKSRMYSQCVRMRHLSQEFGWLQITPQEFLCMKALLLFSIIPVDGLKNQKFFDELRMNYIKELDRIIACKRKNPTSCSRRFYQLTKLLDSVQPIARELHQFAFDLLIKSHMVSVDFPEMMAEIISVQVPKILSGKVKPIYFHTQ
Source text: We generated a LNCaP cell line stably expressing luciferase controlled by androgen response elements (ARE-luciferase).
Cell Culture and Treatments. The LNCaP cell line were obtained from ATCC, cultured in RPMI1640 (Corning) supplemented with 10% heat-inactivated GemCell bovine serum (Gemini Bio-Products) and Penicillin-Streptomycin (Gemini Bio-Products). Cell lines stably expressing ARE-luciferase (LNCaP-luc) was generated using Cignal Lenti AR Reporter (Qiagen) and was continuously cultured with 500 ng/mL Puromycin (Gibco) for positive selection. Cells were maintained at 37° C. in a humidified incubator with 5% carbon dioxide. All cell lines were authenticated using NIST approved short tandem repeat (STR) DNA profiling performed by the University of Arizona Genetics Core and routinely tested negative for mycoplasma.
Luciferase assay. LNCaP-luc cells were seeded in clear flat bottom white polystyrene 96-well plates (Corning) at a density of 12,000 cells/well. […] Dose-response curves were fit using the delta method and t-distribution (n=1). Compounds are tested up to 10 μM.

LNCaP cells = test: LNCaP cell viability assay (CellTiter-Glo); assay type: cell-based; conditions: 1 and 10 μM drug + 60 pM R1881, 5 days
Protocol: LNCaP cell viability assay. Cells were seeded into 96-well fibronectin coated (1 ug/cm^2) plates (CellCarrier, PerkinElmer) at a density of 5,000 cells/well. […] Drug-treated cells were lysed with CellTiter-Glo 3D Cell Viability Assay (Promega) and transferred to white 96-well plates (Corning). Luminescence was measured utilizing GloMax 96 Microplate Luminometer (Promega). Analysis was conducted in the R statistical environment (v 3.6.0). […] Visualizations were facilitated by the ggplot2 package (v3.2.1), with standard error (S.E.) shown where appropriate.

[2] = Microsome stability assay; assay type: in vitro ADME, human; conditions: for toxic metabolite BMS-501949 detected in LCMS / active metabolite detected in LCMS: 10 μM drug; for toxic metabolite BMS-501949 detected in LCMS: 8 h incubation, o-fluoro-BMS-501949 for EITM-1707; for active metabolite detected in LCMS: Unnamed metabolite (predicted active) for EITM compounds, BMS-570511 for BMS-641988, 8 h; for half-life at 1 μM / microsomal CLint at 1 μM: human, pooled human liver microsomes, pH 7.4, liver microsomes; for half-life at 1 μM: 1 μM drug, read-out: T½; for microsomal CLint at 1 μM: read-out: rate of intrinsic clearance
Protocol: Microsome stability assays. In vitro metabolism was determined as described previously. Specifically, to measure metabolism of parent compounds, the higher throughput protocol was applied, in which 0.5 mg/ml pooled human liver microsomes (Sigma) were mixed with 1 μM drugs and phosphate buffer (0.1 M, pH 7.4) in 96-well plates. Enzymatic reactions were started by adding 1 mM NADPH (Sigma Aldrich) followed by incubation at 37° C. Fractions were quenched by transfer to ice-cold acetonitrile after the indicated incubation times. Samples were analyzed using liquid chromatography-mass spectrometry (LC/MS-MS). Rates of intrinsic clearance were determined from the amount of the parent compound consumed per min per mg of microsomal protein as described previously. To analyze accumulating metabolites, the basic protocol was used, and microsomes were incubated with 10 μM drugs for 8 h.

GFP-AR = target: T2, GFP-AR (Homo sapiens, UniProt P10275); test: Confocal microscopy of PC3 GFP-AR cells (nuclear hyperspeckling); assay type: cell-based; conditions: 10 μM enantiomer 180 min, 1 nM R1881 90 min
T2 construct: expressed in transfected cells; host or cells: PC3
T2 sequence (P10275 1-920): T1 sequence (P10275 1-920 T878A) with A878T
Protocol: Initial compound testing was performed with PC3 GFP-AR cells and confocal microscopy. First, we tested purified BMS enantiomers (FIG. 6A).
(§1) PC3 and VCaP cell lines were obtained from ATCC and cultured as recommended. Generation and culture of PC3 GFP-AR cells were described previously (14). ARE-luciferase cells were generated using Cignal Lenti AR Reporter (Qiagen). Cell lines were authenticated using NIST-approved short tandem repeat DNA profiling and tested negative for mycoplasma. Drug treatments were conducted after overnight culture in phenol red-free media supplemented with charcoal:dextran stripped FBS.
Confocal Microscopy. PC3 GFP-AR cells were seeded and stained overnight with SiR-DNA ([…]).

VCaP cells = test: VCaP viability assay (CellTiter-Glo); assay type: cell-based
Protocol: as §1
Luminometer Assays. For ARE-luciferase, luciferase substrate was added to lysed cells after 24-h treatment. For viability, cells were lysed with CellTiter-Glo 3D Cell Viability Assay (Promega) after 6 d of treatment. Measurements were performed in 96-well plates (Corning) using a GloMax 96 Microplate Luminometer (Promega).

Compound	AR-dependent gene expression, in words [1]	AR agonism / antagonism in LNCaP ARE-luciferase, in words (AR T878A)	EC50 (AR T878A)	ED50 (AR T878A)	Emax (AR T878A)	LNCaP proliferation / viable cells, in words (LNCaP cells)	toxic metabolite BMS-501949 detected in LCMS [2]	active metabolite detected in LCMS [2]	half-life at 1 μM [2]	microsomal CLint at 1 μM [2]	nuclear hyperspeckling, in words (GFP-AR)	Emax (AR T878A; LNCaP)	R1881-induced growth, in words (VCaP cells; 10 μM drug + 1 nM R1881, 6-d treatment)	(S)-enantiomer fraction that halved the drug effect, cell viability (VCaP cells; 10 μM mixture + 1 nM R1881, 6 d, 95% CI (0.2%, 0.4%))	(S)-enantiomer fraction that rescued the proliferation phenotype, cell viability (VCaP cells; 10 μM mixture + 1 nM R1881, 6 d, 95% CI (0.7%, 3.7%))	IC50 (VCaP cells; Homo sapiens, VCaP)	toxic metabolite BMS-501949 detected in LCMS ([2]; listed as (R)-EITM-1702)
CC(O)c1cc(C(=O)N[C@H]2C[C@]3(C)O[C@@]2(C)[C@H]2C(=O)N(c4ccc(C#N)c(C(F)(F)F)c4F)C(=O)[C@H]23)n[nH]1 (stereo partly drawn) [(S)-EITM-1707, N-((3aS,4S,5S,7S,7aR)-2-(4-cyano-2-fluoro (trifluoromethyl)phenyl)-4,7-dimethyl-1,3-dioxooctahydro-1H-4,7-epoxyisoindol-5-yl)-5-(1-hydroxyethyl)-1H-pyrazole-3-carboxamide]	rescued the castration phenotype, mimicking DHT																
CCS(=O)(=O)N[C@@H]1C[C@@]2(C)O[C@]1(C)[C@@H]1C(=O)N(c3ccc(C#N)c(C(F)(F)F)c3)C(=O)[C@@H]12 [BMS-641988, N-((3aR,4R,5R,7R,7aS)-2-(4-cyano-3-(trifluoromethyl)phenyl)-4,7-dimethyl-1,3-dioxooctahydro-1H-4,7-epoxyisoindol-5-yl)ethanesulfonamide, reference compound]		potent agonist in LNCaP cells; also recorded: induced ARE-luciferase without addition of R1881	94 ± 22 nM	agonist	agonist	promoted proliferation	accumulated and yes	yes	1.44 h	10.1 µL/min/mg	inhibited R1881-induced hyperspeckling						
CCS(=O)(=O)N[C@H]1C[C@]2(C)O[C@@]1(C)[C@H]1C(=O)N(c3ccc(C#N)c(C(F)(F)F)c3)C(=O)[C@H]12 [(S)-BMS, N-((3aS,4S,5S,7S,7aR)-2-(4-cyano-3-(trifluoromethyl)phenyl)-4,7-dimethyl-1,3-dioxooctahydro-1H-4,7-epoxyisoindol-5-yl)ethanesulfonamide]											caused substantial hyperspeckling, comparable to that of R1881						
C[C@]12O[C@](C)(C[C@H]1NC(=O)c1cc[nH]n1)[C@H]1C(=O)N(c3ccc(C#N)c(C(F)(F)F)c3)C(=O)[C@H]12 [EITM-1702, N-((3aR,4R,5R,7R,7aS)-2-(4-cyano-3-(trifluoromethyl)phenyl)-4,7-dimethyl-1,3-dioxooctahydro-1H-4,7-epoxyisoindol-5-yl)-1H-pyrazole-3-carboxamide]		robust antagonistic activities without notable agonism	570 nM			almost phenocopying castrate conditions; also recorded: inhibited the growth of LNCaP prostate cancer cells	not detected	yes	0.944 h	15.3 µL/min/mg		8%	visibly suppressed R1881-induced growth	0.3%	2.2%	540 nM	no
